Test [1] concerns Rattus norvegicus. Description: Number of rats protected at a dose of 30 mg/Kg when given oral at 0.25 hr upon maximal electroshock seizure; Total number of rats = 4. Format: functional. In general terms: The maximal electroshock test induces tonic seizures with an electrical stimulus.
In test [2] the test system is Mus musculus. Description: Minimum dose required for anticonvulsant activity when given i.p., at 0.5 hr in mice upon maximal electroshock seizure. Format: functional.
Test [3] has as its system Rattus norvegicus. Description: Number of rats protected at a dose of 30 mg/Kg when given oral at 4 hr upon maximal electroshock seizure; Total number of rats = 4. Format: functional.
Test [4] is filed under the species Rattus norvegicus. The experiment in a line: Ex vitro percentage inhibition activity against GABA-T enzyme at a concentration of 2.5 uM after 4.5 h. Format: functional.
Test [5] has as its system Rattus norvegicus. Description: Number of rats protected at a dose of 30 mg/Kg when given oral at 0.5 hr upon maximal electroshock seizure; Total number of rats = 4. Format: functional.
Test [6] concerns Mus musculus. Description: Post treatment activity score for CNS study using a actophotometer at a dose of 100 mg/Kg after 0.5 hr when given i.p., in mice (No. of animals 6); Control (24h before) 238.
Test [7] has as its system Mus musculus. Description: Mean sleeping time evaluated for CNS study using the pentobarbital-induced narcosis model at a dose of 100 mg/Kg when given i.p., in mice (No. of animals 6).
Test [8] is filed under the species Rattus norvegicus. Description: Ex vitro percentage inhibition activity against GABA-T enzyme at a concentration of 2.5 uM after 6 h. Format: functional.
The test system of test [9] is Mus musculus. The experiment in a line: Minimum dose required for anticonvulsant activity when given i.p., at 0.5 hr in mice upon subcutaneous strychnine seizure. Format: functional.
The target in test [10] is 4-aminobutyrate aminotransferase, mitochondrial (Rattus norvegicus) (UniProt P50554). The experiment in a line: In vitro percentage inhibition activity against GABA-T enzyme at a concentration of 5 uM after 4.5 h.
Test [11] has as its system Rattus norvegicus. Description: Toxic dose observed for anticonvulsant activity when given i.p., at 1 h in rat upon neurotoxicity seizure. Format: functional. The settings on record: ip.
Test [12] has as its system Rattus norvegicus. The experiment in a line: Effect on GABA level in rat whole brain concentration after 2 hr post-treatment at a dose of 100 mg/Kg when given i.p.; Control 48.4. Format: functional.
Test [13] has as its target 4-aminobutyrate aminotransferase, mitochondrial (Rattus norvegicus) (UniProt P50554). Description: In vitro percentage inhibition activity against GABA-T enzyme at a concentration of 5 uM after 6 h.
Test [14] concerns Rattus norvegicus. Description: Number of rats protected at a dose of 30 mg/Kg when given oral at 2 hr upon maximal electroshock seizure; Total number of rats = 4. Format: functional.
Test [15] deals with Mus musculus. The experiment in a line: Minimum dose required for anticonvulsant activity when given i.p., at 2 hr in mice upon subcutaneous strychnine seizure. Format: functional.
Test [16] relates to Mus musculus. The experiment in a line: Minimum dose required for anticonvulsant activity when given i.p., at 0.5 hr in mice upon subcutaneous pentylenetetrazole seizure. Format: functional.
Test [17] has as its system Mus musculus. The experiment in a line: Post treatment activity score for CNS study using a actophotometer at a dose of 100 mg/Kg after 1 h when given i.p., in mice (No. of animals 6); Control (24h before) 238.
The species entered for test [18] is Rattus norvegicus. Description: Protective index between effective dose and toxic dose in rat. Format: functional.
The test system of test [19] is Rattus norvegicus. The experiment in a line: Effect on GABA level in rat whole brain concentration after 7 days post-treatment at a dose of 30 mg/Kg when given orally; Control 50.5. Format: functional.
The species entered for test [20] is Rattus norvegicus. The experiment in a line: Ex vitro percentage inhibition activity against GABA-T enzyme at a concentration of 2.5 uM after 3 h. Format: functional.
For test [21], the target named is 4-aminobutyrate aminotransferase, mitochondrial (Rattus norvegicus) (UniProt P50554). The experiment in a line: In vitro percentage inhibition activity against GABA-T enzyme at a concentration of 5 uM after 3 h.
Test [22] has as its system Mus musculus. Description: Minimum dose required for anticonvulsant activity when given i.p., at 4 hr in mice upon maximal electroshock seizure. Format: functional.
The test system of test [23] is Rattus norvegicus. The experiment in a line: Effective dose required for anticonvulsant activity when given i.p., at 1 hr in rat upon maximal electroshock seizure. Format: functional. The settings on record: ip.
Test [24] deals with Rattus norvegicus. Description: Number of rats protected at a dose of 30 mg/Kg when given oral at 1 hr upon maximal electroshock seizure; Total number of rats = 4. Format: functional.
Test [25] relates to Mus musculus. The experiment in a line: Post treatment immobility time for CNS study using Porsolt's swimpool test at a dose of 100 mg/Kg after 1 hr when given i.p., in mice (No. of animals 6); Control (24h before) 143.
Test [26] concerns Mus musculus. The experiment in a line: Post treatment activity score for CNS study using a actophotometer at a dose of 100 mg/Kg after 1 hr when given i.p., in mice (No. of animals 6); Control (24h before) 268.
The test system of test [27] is Mus musculus. The experiment in a line: Post treatment immobility time for CNS study using Porsolt's swimpool test at a dose of 100 mg/Kg after 1 hr when given i.p., in mice (No. of animals 6); Control (24h before) 146.
The subject of test [28] is Rattus norvegicus. The experiment in a line: Effective dose required for anticonvulsant activity when given orally at 2 h in rat upon maximal electroshock seizure. Format: functional. The note with it: po.
The species entered for test [29] is Rattus norvegicus. Description: Ex vitro percentage inhibition activity against GABA-T enzyme at a concentration of 1.25 uM after 6 h. Format: functional.
The species named for test [30] is Rattus norvegicus. Description: Ex vitro percentage inhibition activity against GABA-T enzyme at a concentration of 1.25 uM after 3 h. Format: functional.
In test [31] the test system is Rattus norvegicus. Description: Enzymatic activity to assess the increase in level of SGOT at a dose of 30 mg/Kg for 14 days when given p.o., in 6 rats; Control 73.1. Format: functional.
Test [32] relates to Mus musculus. The experiment in a line: Post treatment activity score for CNS study using a actophotometer at a dose of 100 mg/Kg after 0.5 hr when given i.p., in mice (No. of animals 6); Control (24h before) 268.
Test [33] deals with Rattus norvegicus. The experiment in a line: Toxic dose observed for anticonvulsant activity when given orally at 2 hr in rat upon neurotoxicity seizure. Format: functional. The settings on record: po.
Test [34] relates to Rattus norvegicus. Description: Enzymatic activity to assess the increase in level of SGPT at a dose of 30 mg/Kg for 14 days when given p.o., in 6 rats; Control 45.0. Format: functional.
For test [35], the species on record is Rattus norvegicus. Description: Ex vitro percentage inhibition activity against GABA-T enzyme at a concentration of 1.25 uM after 4.5 h. Format: functional.
The target in test [36] is 4-aminobutyrate aminotransferase, mitochondrial (Rattus norvegicus) (UniProt P50554). The experiment in a line: In vitro percentage inhibition activity against GABA-T enzyme at a concentration of 1.25 uM after 6 h.
Test [37] has the same target. The experiment in a line: In vitro percentage inhibition activity against GABA-T enzyme at a concentration of 1.25 uM after 3 h.
Test [38] has the same target. The experiment in a line: In vitro percentage inhibition activity against GABA-T enzyme at a concentration of 1.25 uM after 4.5 h.
The test system of test [39] is Mus musculus. The experiment in a line: Minimum dose required for anticonvulsant activity when given i.p., at 0.5 hr in mice upon neurotoxicity seizure using rotarod test. Format: functional. In general terms: The rotarod test checks motor coordination on a turning rod.

A value given as a limit tells only on which side of the number the result lay.

What is called Inhibition is the relative decrease from the control value, in per cent. Low readings indicate little suppression, high ones strong suppression. Usually inhibition stands for the change of the read-out against control, counted positive when it falls. The low end stands for a weak effect, the high end for a strong effect. The term TD50 denotes the dose at which the toxic effect under study appears in half of the subjects. One may read the ED50 as the dose that gives a 50% effect, or the effect in half of the subjects. The low end stands for greater potency, the high end for weaker potency.

Chain of 4-aminobutyrate aminotransferase, mitochondrial (Rattus norvegicus) (P50554 28-500 limits assumed): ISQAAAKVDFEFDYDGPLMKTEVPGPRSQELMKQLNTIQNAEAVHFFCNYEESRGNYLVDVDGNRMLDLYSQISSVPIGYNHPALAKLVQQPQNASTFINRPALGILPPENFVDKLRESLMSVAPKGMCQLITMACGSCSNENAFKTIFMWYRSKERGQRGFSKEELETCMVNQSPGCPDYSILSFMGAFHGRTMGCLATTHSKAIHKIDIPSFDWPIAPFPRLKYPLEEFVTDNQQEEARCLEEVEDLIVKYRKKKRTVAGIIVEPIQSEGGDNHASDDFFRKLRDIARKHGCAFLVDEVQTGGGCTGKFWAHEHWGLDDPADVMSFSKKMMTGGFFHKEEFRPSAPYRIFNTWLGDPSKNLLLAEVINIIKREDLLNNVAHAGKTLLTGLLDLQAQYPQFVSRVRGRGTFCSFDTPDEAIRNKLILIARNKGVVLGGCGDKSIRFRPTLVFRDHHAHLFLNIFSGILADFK

As for `COc1cc(/C=N/NC(=O)Nc2c(C)cccc2C)ccc1O`, the Activity in the test with Rattus norvegicus [1] is on record as 3; with Rattus norvegicus [3], 4; with Rattus norvegicus [5] it was 3; with Mus musculus [6], 157; with Rattus norvegicus [12] it was 91.2 ug/100mg of tissue; in the test with Rattus norvegicus [14], 3. The Activity is 130 with Mus musculus [17], 106 ug/100mg of tissue with Rattus norvegicus [19], 4 in the test with Rattus norvegicus [24] and 207 in the test on Mus musculus [25]. Moreover, the MES with Mus musculus [2] came out at 100 mg/kg; in the test on Mus musculus [22] it was 300 mg/kg. Further, the Inhibition in the test listed under Rattus norvegicus [4] is listed as 56%; in the test filed under Rattus norvegicus [8] it was 12%; in the test listed under Rattus norvegicus [20], 0%. In the test on Mus musculus [7], this molecule returned a Time of 68 min. Besides, the STY seizure was 30 mg/kg in the test with Mus musculus [9] and 100 mg/kg in the test with Mus musculus [15]. The results for the inhibition in test [10], in test [13] and in test [21] were 56%, 23% and 0%, respectively. This molecule also returned a TD50 in the test with Rattus norvegicus [11] above 117 mg/kg. The PTZ seizure in the test with Mus musculus [16] is 300 mg/kg. The molecule further returned a PI in the test listed under Rattus norvegicus [18] above 4.4. The molecule further registered an ED50 in the test on Rattus norvegicus [23] of 26.2 mg/kg.
Turning to `Cc1ccc(/C=N/NC(=O)Nc2c(C)cccc2C)cc1`, the Activity in the test with Rattus norvegicus [1] is 0; in the test on Mus musculus [26], 133; in the test on Rattus norvegicus [3] it was 3; in the test with Rattus norvegicus [5] it was 2; in the test on Mus musculus [27], 225; in the test on Rattus norvegicus [12], 90.2 ug/100mg of tissue. In addition, the Activity with Rattus norvegicus [14] is recorded as 4; in the test with Rattus norvegicus [19], 100 ug/100mg of tissue; in the test with Mus musculus [32], 175; with Rattus norvegicus [24], 3. In addition, the MES was determined as 100 mg/kg with Mus musculus [2] and 300 mg/kg in the test on Mus musculus [22]. Moreover, in the test with Mus musculus [7], the Time is on record as 150 min. Also, the 50% effect level in the test on Rattus norvegicus [28] (ED50) was put at a dose of 33.1 mg/kg. For the same molecule, the values for the Inhibition in the test listed under Rattus norvegicus [29], in the test listed under Rattus norvegicus [30] and in the test filed under Rattus norvegicus [35] were 48%, 32% and 75%, respectively. Further, the STY seizure with Mus musculus [9] and in the test on Mus musculus [15] was 100 mg/kg throughout. Moreover, the inhibition in [10] came out at 70%; in test [13], 0%; in test [21], 55%. Moreover, in the test with Mus musculus [16], the PTZ seizure turned out to be 300 mg/kg. Further, the PI in the test listed under Rattus norvegicus [18] is above 3.62. This molecule also had an SGOT activity in the test on Rattus norvegicus [31] of 70.2 units/mL. The molecule also displayed a TD50 with Rattus norvegicus [33] above 120 mg/kg. In addition, in the test with Rattus norvegicus [34], the SGPT activity came out at 47.3 units/mL.
On to `NNCCc1ccccc1` [PHENELZINE], for which the figures for the inhibition in test [36], in test [37] and in [38] were 62%, 0% and 75%, respectively. Besides, the figures for the Inhibition in the test listed under Rattus norvegicus [29], in the test listed under Rattus norvegicus [30] and in the test listed under Rattus norvegicus [35] were 65%, 25% and 85%, respectively.
`C/C(=N\NC(=O)Nc1c(C)cccc1C)c1ccc([N+](=O)[O-])cc1`: the Activity in the test with Rattus norvegicus [1] worked out at 1; with Rattus norvegicus [3], 1; with Rattus norvegicus [5], 2; in the test on Rattus norvegicus [14], 3; in the test with Rattus norvegicus [24] it was 2. In addition, the MES in the test on Mus musculus [2] and in the test with Mus musculus [22] was 300 mg/kg each time. Besides, the STY seizure was found to be 100 mg/kg in the test with Mus musculus [9] and 300 mg/kg with Mus musculus [15]. In the test on Mus musculus [16], this molecule registered a PTZ seizure of 300 mg/kg. Besides, the NT in the test on Mus musculus [39] was determined as 300 mg/kg.

The values are drawn from ChEMBL document CHEMBL1141099, “Discovery of N-(2,6-dimethylphenyl)-substituted semicarbazones as anticonvulsants: hybrid pharmacophore-based design” (2005).
